The results in this text go back to article PMC4485422 (Neuron, 2015).

For this test, the target named is sepiapterin reductase (hSPR) (Homo sapiens, UniProt P35270). The test is described as follows: cell-free TR-FRET binding assay. (In TR-FRET formats the signal depends on donor and acceptor labels being close together.)
Chain of sepiapterin reductase (hSPR) (P35270 whole entry): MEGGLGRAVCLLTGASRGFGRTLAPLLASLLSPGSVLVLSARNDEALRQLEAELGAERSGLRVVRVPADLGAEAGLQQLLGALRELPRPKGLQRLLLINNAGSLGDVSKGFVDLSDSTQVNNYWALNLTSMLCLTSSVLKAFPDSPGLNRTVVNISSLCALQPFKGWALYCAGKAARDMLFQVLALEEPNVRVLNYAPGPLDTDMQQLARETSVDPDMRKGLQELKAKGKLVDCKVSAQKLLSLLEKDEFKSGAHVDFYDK

Usually IC50 stands for the concentration at which inhibition is half-maximal. A low value points to inhibition by little substance. In turn, `CC(=O)NCCc1c[nH]c2ccc(O)cc12` [NAS, N-acetylserotonin] returned an IC50 of 1900 nM.
